The nature of series [1]: Plasma protein binding human. Type of series: in vitro ADME. How it is done: (§1) Columns GD-GJ: Wuxi Inc. data for MMV (data presented first in this paper) PK/DMPK Parameters: Fasted animals (Male CD-1 mouse, 7-9 weeks age, 30±10 g, n=3) obtained from an approved vendor (SLAC Laboratory Animal Co. Ltd., Shanghai, China or Sino-British SIPPR/BK Laboratory Animal Co. Ltd Shanghai, China) were administered with a single oral dose (140 μmol/kg) using DMSO: 1% HPMC (5:95) as a vehicle. Blood sampling was performed via the submandibular or saphenous vein (t=0.083, 0.25, 1, 2, 4, 6 and 9 h) and transferred into microcentrifuge tubes containing Sodium Heparin (1,000 IU/ml) as anti-coagulant placed on wet ice until processed for plasma by centrifugation at approximately 4°C, 3000×g for 15 min. Plasma samples were stored in polypropylene tubes, quick frozen over dry ice and kept at -70±10°C until LC/MS/MS analysis. LC/MS/MS methods for the quantitative determination compounds plasma levels were developed with an internal standard. […] (Phoenix WinNonlin, version 6.2.1, Pharsight, Mountain View, CA) and expressed as Cmax & AUC0-last. […] AUC0-last is the area under the curve expressed as >12 h*μM (Yes or No). Plasma protein binding assay (PPB) (CD-1 mouse and human) expressed as <95% bound, >95% bound, or >99% bound. Kinetic Solubility at pH 7.4 was determined by liquid chromatography/chemiluminescence nitrogen detection (LC/CLND) and was scored as greater than 20µM (Yes or No). hERG inhibition was measured at 11µM by the QPatch- HT system and is expressed as “Yes” if greater than 45% inhibited at 11µM and “No” if less than or equal to 45% inhibited at 11µM. As part of the Drug-Drug Interaction studies (DDI issues), 5 human and 1 mouse CYP isoforms (1A2, 2C9, 2C19, 2D6, 3A4-M, 3A4-T) were tested for inhibition assay at 10 µM. […] Otherwise DDI issues were scored as “No”. Positive and negative controls were run for each assay (Table 1).

In series [2] the test system is P. falciparum NF54 gametocytes stage I-V. Further details: method as in ref [58, 65] (a number printed in a supplementary file, which may have a reference list of its own: not looked up in the article's list). Conditions: 12.5µM; ref [58, 65]; cited from earlier work.
In a further series the test system is Mycobacterium marinum. Nature of the series: M. marinum antibiotic assay. The conditions noted are these: 10µM. Type of series: cell-based. How it is done: (§2) Columns FA-FC: Soldati Group (data presented first in this paper). M. marinum, D. discoideum, and Acathamoeba castellani assays. Each compound of the Malaria Box has been assayed at 10 µM in all three assays. First, the antibiotic activity was assayed directly against Mycobacterium marinum in its culture medium. Second, the toxicity and growth inhibitory effect of the compounds was assayed against the amoeba Dictyostelium discoideum in its culture medium. Finally, the “in cellulo” anti-infective activity of each compound was tested using the intracellular infection system Acanthamoeba castellanii-M. marinum. Values have been normalized using the DMSO carrier. For each assay, values have been normalized to 1.00 using the DMSO carrier, which has no detectable effect on D. discoideum nor M. marinum growth, while rifabutin was used as positive control for the antibiotic assay and the infection assay, as it abolishes M. marinum growth (normalized value under 0.10) in broth at 10 µM and intracellularly at 30 µM [150].

Another series has as its system P. berghei ookinetes. Description: P. berghei Ookinete Development Assay (Pb ODA). Type of series: cell-based. Conditions: Plasmodium berghei. From the text: Columns BX- CA, CD-DF: Delves, Ruecker, & Sinden group (Data and methods published in ref [82] except Column CE which is new data) The data represent our primary screening data in the P. falciparum Dual Gamete formation assay (Pf DGFA). They show the functional viability of mature Stage V male and female gametocytes as reported by their ability to undergo gamete formation as reported in the reference. Column CD represents primary screening data in the P. berghei Ookinete Development Assay (Pb ODA) at 1 µM as reported in the reference. Column CE represents a parallel screen in the Pb ODA at 10 µM that has not been published.

The subject of the next series is Dictyostelium discoideum. Nature of the series: D. discoideum toxicity assay. Type of series: cell-based. Conditions: 10µM. How it is done: as §2
In series [3] the test system is Saccharomyces cerevisiae ABC16-Monster. Nature of the series: S. cerevisiae ABC16-Monster growth inhibition. Conditions: ABC16MONSTER, read-out: S. cerevisiae strain ABC16-Monster in YPD % inhibition. Type of series: cell-based. How it is done: Column EA: Suzuki group (data presented first in this paper). Screening of MMV compounds for Saccharomyces cerevisiae ABC16-Monster growth inhibition. Methods: Compounds were added at 100 micromolar to YPD medium (1% yeast extract, 2% peptone, and 2% glucose). Only the solvent dimethyl sulfoxide (DMSO) without any MMV compound was added at 1% to the negative control. The initial density of ABC16-Monster cells corresponded to optical density at 600 nanometers (OD600) of 0.01. Cells were cultured without agitation in a 96-well plate at 30 degrees Celsius for 18 hours and then resuspended for measurement of OD600. For each compound, two cultures were conducted and examined. The average OD600 value was used. To calculate percent inhibition, OD600 for cells cultured with a compound was divided by OD600 for the negative control. The ABC16-Monster yeast strain was previously described.

In the next series the test system is P. falciparum HB3. Description: Stage-specificity / mitochondrial integrity image assay Ayong. Type of series: cell-based. The conditions noted are these: 10µM.
For series [4], the system named is P. falciparum Stage V male and female gametocytes. Further details: method as in ref [74] (a number printed in a supplementary file, which may have a reference list of its own: not looked up in the article's list). The conditions noted are these: 1µM; ref [74]; cited from earlier work.
Series [5] concerns P. falciparum NF54 late-stage gametocytes. The conditions noted are these: 5 µM; ref [55]; cited from earlier work.
Series [6] concerns Onchocerca lienalis microfilariae. Description: Onchocerca lienalis microfilariae motility. Type of series: cell-based. Conditions: 12.5µM. How it is done:
Column DW: Townson group (data presented first in this paper). Screening of Onchocerca lienalis microfilariae for motility inhibition in microplates. Methods: Microfilariae are obtained from samples of peri-umbilical skin of freshly slaughtered, naturally infected cattle in the UK. […] The results are then calculated as motility index scores and expressed as a percentage of the maximum obtainable. […] Merial) were immotile at the end of the trial.

Series [7] deals with Perkinsus marinus trophozoites. Also noted: method as in ref [96] (a number printed in a supplementary file, which may have a reference list of its own: not looked up in the article's list). Conditions: 20µM; ref [96]; cited from earlier work.
For the next series, the system named is Haemonchus contortus. Description: Haemonchus contortus Scynexis. Type of series: cell-based. The conditions noted are these: 10µM.
Series [8] in a line: Plasma protein binding mouse. Type of series: in vitro ADME. Conditions: CD-1, mouse. How it is done:
as §1

Consider five compounds from paper PMC4965013, “Open Source Drug Discovery with the Malaria Box Compound Collection for Neglected Diseases and Beyond” (PLoS Pathogens, 2016).

Molecules are shown by their SMILES.

As to `CCN(CC)c1cc(C)c2cc(NC(=O)c3cccc(OC)c3)ccc2n1` [MMV000498], the fraction unbound in series [1] was less than 0.01. In series [2], the “gametocyte Stage I % inhibition” value is listed as 84%, the “gametocyte Stage II % inhibition” value was 43%, the “gametocyte Stage III % inhibition” value is 12% and the “gametocyte Stage IV % inhibition” value is on record as 1.56%. The “gametocyte Stage V % inhibition” value in series [2] is recorded as -1.9%. Also, the “Mycobacterium marinum relative growth DMSO=1 Antibiotic Assay” value in the series with Mycobacterium marinum is recorded as 0.98. In addition, the inhibition at 10 µM with P. berghei ookinetes is -0.6%. The “Dictyostelium discoideum relative growth DMSO=1 Toxicity Assay” value in the series on Dictyostelium discoideum is recorded as 0.60. Further, the inhibition at 100 µM in [3] was -6%. Moreover, in the series with P. falciparum HB3, the “P. falciparum HB3 early ring (ER) stage activity” value is on record as “✖”, the “P. falciparum HB3 late ring (LR) stage activity” value (shortened to “P. falciparum HB3 late ring”) was “✖” and the “P. falciparum HB3 trophozoite (T) stage activity” value was “✖”. Further, in [4], the “Male gametocyte Stage V % inhibition of gamete formation” value is reported as -1.33% and the “female gametocyte Stage V % inhibition of gamete formation” value (“female gametocyte Stage V % inhibition” below) is -22%. In series [5], the “gametocyte NF54 late stage (IV-V) % inhibition Cassera” value is 47%. Also, the “Onchocerca lienalis % motility” value in series [6] was determined as 100%. In addition, the “Perkinsus marinus % growth” value in [7] is recorded as 74%. Moreover, the “Haemonchus contortus 96hr % dead” value in the series with Haemonchus contortus worked out at 100%. The fraction unbound in series [8] was less than 0.01.
For the compound `CCN1CCN(c2cc(C)c3cc(NC(=O)c4ccc(OC)c(OC)c4)ccc3n2)CC1` [MMV019074], the fraction unbound in [1] was more than 0.05. Besides, in series [2], the “gametocyte Stage I % inhibition” value was 66%, the “gametocyte Stage II % inhibition” value is reported as 32%, the “gametocyte Stage III % inhibition” value is -6% and the “gametocyte Stage IV % inhibition” value is given as 16%. For the same compound, the “gametocyte Stage V % inhibition” value in series [2] is 9%. The inhibition at 10 µM with P. berghei ookinetes was 43%. In addition, the inhibition at 100 µM in series [3] was found to be 3.48%. Besides, in the series on P. falciparum HB3, the “P. falciparum HB3 early ring (ER) stage activity” value is listed as “✖” and the “P. falciparum HB3 late ring” value is recorded as “✖”. For the same compound, in [4], the “Male gametocyte Stage V % inhibition of gamete formation” value is listed as -3.72% and the “female gametocyte Stage V % inhibition” value was -9%. Further, the “gametocyte NF54 late stage (IV-V) % inhibition Cassera” value in series [5] was 27%. For the same compound, in series [6], the “Onchocerca lienalis % motility” value worked out at 100%. Also, the “Perkinsus marinus % growth” value in series [7] is on record as 92%. In addition, the “Haemonchus contortus 96hr % dead” value in the series with Haemonchus contortus came to 31%. In series [8], this compound registered a fraction unbound of less than 0.05.
On to `CCOC(=O)c1cnc2ccc(OC)cc2c1NCc1ccccc1` [MMV665813], for which the fraction unbound in series [1] was less than 0.01. In series [2], the “gametocyte Stage I % inhibition” value was 68%, the “gametocyte Stage II % inhibition” value is reported as 46%, the “gametocyte Stage III % inhibition” value is -0.559% and the “gametocyte Stage IV % inhibition” value is given as 15%. In addition, the “gametocyte Stage V % inhibition” value in [2] is on record as 12%. Also, the “Mycobacterium marinum relative growth DMSO=1 Antibiotic Assay” value with Mycobacterium marinum is reported as 0.86. The inhibition at 10 µM with P. berghei ookinetes came out at 33.4%. The “Dictyostelium discoideum relative growth DMSO=1 Toxicity Assay” value with Dictyostelium discoideum came out at 0.71. Besides, the inhibition at 100 µM in series [3] is -1.7%. In series [4], the “Male gametocyte Stage V % inhibition of gamete formation” value is -13% and the “female gametocyte Stage V % inhibition” value is -41%. In series [5], the “gametocyte NF54 late stage (IV-V) % inhibition Cassera” value is given as 36%. Moreover, the “Onchocerca lienalis % motility” value in [6] is 100%. Moreover, the “Perkinsus marinus % growth” value in series [7] is listed as 69%. Further, in the series on Haemonchus contortus, the “Haemonchus contortus 96hr % dead” value stood at 1%. In [8], this compound showed a fraction unbound of less than 0.01.
Turning to `COc1cc2cc(C(=O)Nc3ccccc3)c(N)nc2cc1OC` [MMV006767], in [1], the fraction unbound is more than 0.05. Also, in [2], the “gametocyte Stage I % inhibition” value was 96%, the “gametocyte Stage II % inhibition” value is on record as 56%, the “gametocyte Stage III % inhibition” value is reported as 26% and the “gametocyte Stage IV % inhibition” value is 12%. Moreover, the “gametocyte Stage V % inhibition” value in series [2] is given as 23%. In addition, the inhibition at 10 µM with P. berghei ookinetes stood at 39.4%. For the same compound, the inhibition at 100 µM in series [3] was determined as 24%. In the series on P. falciparum HB3, the “P. falciparum HB3 late ring” value is “T,S” and the “P. falciparum HB3 trophozoite (T) stage activity” value is recorded as “✖”. Also, in series [4], the “Male gametocyte Stage V % inhibition of gamete formation” value is 22% and the “female gametocyte Stage V % inhibition” value is -10%. Also, the “gametocyte NF54 late stage (IV-V) % inhibition Cassera” value in [5] was 7%. In addition, the “Onchocerca lienalis % motility” value in series [6] came to 100%. Moreover, in [7], the “Perkinsus marinus % growth” value is 44%. In addition, in the series with Haemonchus contortus, the “Haemonchus contortus 96hr % dead” value turned out to be 57%. Besides, the fraction unbound in series [8] is more than 0.05.
The compound `COc1ccc(C(=O)Nc2ccc3nc(N4CCCCC4)cc(C)c3c2)cc1OC` [MMV019758] registered a fraction unbound in series [1] of less than 0.01. In addition, in series [2], the “gametocyte Stage I % inhibition” value is 72%, the “gametocyte Stage II % inhibition” value is listed as 41%, the “gametocyte Stage III % inhibition” value is on record as 3.44% and the “gametocyte Stage IV % inhibition” value is 8%. Also, in [2], the “gametocyte Stage V % inhibition” value was 0.3%. The “Mycobacterium marinum relative growth DMSO=1 Antibiotic Assay” value in the series on Mycobacterium marinum was 1.01. Further, the inhibition at 10 µM with P. berghei ookinetes came to 35.4%. Besides, the “Dictyostelium discoideum relative growth DMSO=1 Toxicity Assay” value in the series with Dictyostelium discoideum was 0.88. For the same compound, in series [3], the inhibition at 100 µM was -8%. Also, in the series on P. falciparum HB3, the “P. falciparum HB3 late ring” value is reported as “✖”. In addition, in series [4], the “Male gametocyte Stage V % inhibition of gamete formation” value is 10% and the “female gametocyte Stage V % inhibition” value is recorded as -48%. Besides, in series [5], the “gametocyte NF54 late stage (IV-V) % inhibition Cassera” value is reported as 56%. The “Onchocerca lienalis % motility” value in series [6] is 100%. Besides, the “Perkinsus marinus % growth” value in series [7] is given as 101%. Further, the “Haemonchus contortus 96hr % dead” value with Haemonchus contortus is reported as 75%. For the same compound, the free fraction (fraction unbound) in series [8] is less than 0.01.
